Patent publication EP4741427A1, “GLYCAN, PREPARATION METHOD THEREFOR AND USE THEREOF, AND ANTI-TUMOR DRUG” (Peking University, priority 2023, dated 2025)

Legend:
[1] = tested on: Aspc-1; assay: CCK-8 proliferation inhibition of pancreatic cancer cells; type: cell-based; settings: 72 h
Description: (§1) Three pancreatic cancer cell lines (Aspc-1, Bxpc-3, Panc-1) and the hepatocyte cell line LO2 used in the experiments were provided by Peking University People's Hospital and the Institute of Materia Medica, Chinese Academy of Medical Sciences. The culture conditions for Aspc-1 and Bxpc-3 cells were RPMI 1640 medium (Gibco, Thermo Fisher Scientific, USA) supplemented with 10% fetal bovine serum (HyClone, Thermo Fisher Scientific, USA) and 1% penicillin/streptomycin (Life Technologies, Thermo Fisher Scientific, USA). The culture conditions for Panc-1 and LO2 cells were DMEM medium (Gibco, Thermo Fisher Scientific, USA) supplemented with 10% fetal bovine serum (HyClone, Thermo Fisher Scientific, USA) and 1% penicillin/streptomycin (Life Technologies, Thermo Fisher Scientific, USA). Cell culture was conducted at 37°C with adequate humidity and 5% CO2 concentration.
(§2) Three types of pancreatic cancer cells (Aspc-1, Bxpc-3, Panc-1) were seeded into 96-well plates at a density of 5×10^3 cells/well (100 µL). After the cells adhered, gemcitabine (50 µM), compound 2-11 (140-mer 2-11, 50 µM), 2-30 (70-mer 2-30, 50 µM), 2-31 (40-mer 2-31, 50 µM), 2-32 (30-mer 2-32, 50 µM), 2-33 (10-mer A 2-33, 50 µM), 2-34 (10-mer B 2-34, 50 µM), 2-35 (5-mer A 2-35, 50 µM), 2-36 (5-mer B 2-36, 50 µM), and 2-37 (5-mer C 2-37, 50 µM) were added, respectively. The cells were co-incubated for 72 h. Then, 10 µL of CCK-8 reagent was added to each well and incubated at 37°C for 2 h. After thorough mixing, the absorbance at 450 nm was measured by using a microplate reader. A cell survival rate was calculated by using the following formula: Cell survival rate(%) = (ODsample−OD_blank)/(OD_control−OD_blank) × 100%. [formula]
(§3) Three types of pancreatic cancer cells (Aspc-1, Bxpc-3, and Panc-1) were seeded into 96-well plates at a density of 5×10^3 cells/well (100 µL). After the cells adhered, different concentrations of compound 2-34 (3.125 µM, 6.25 µM, 12.5 µM, 25 µM, 50 µM, 100 µM) were added. The cells were co-incubated for 72 h. Then, 10 µL of CCK-8 reagent was added to each well and incubated at 37°C for 2 h. After thorough mixing, the absorbance at 450 nm was measured by using a microplate reader, and the cell survival rate was calculated.

[2] = tested on: Panc-1; assay: as above; type: cell-based; settings: 72 h
Description: as §1, §2, §3

[3] = tested on: Bxpc-3; assay: as above; type: cell-based; settings: 72 h
Description: as §1, §2, §3

[4] = tested on: LO2 hepatocytes; assay: CCK-8 cytotoxicity on hepatocytes; type: cell-based, human; settings: concentration up to 100 µM, 72 h
Description: as §1
LO2 hepatocytes were seeded into 96-well plates at a density of 5×10^3 cells/well (100 µL). After the cells adhered, different concentrations of compound 2-34 (3.125 µM, 6.25 µM, 12.5 µM, 25 µM, 50 µM, 100 µM) and the positive control drug gemcitabine (3.125 µM, 6.25 µM, 12.5 µM, 25 µM, 50 µM, 100 µM) were added, respectively. The cells were co-incubated for 72 h. […] After thorough mixing, the absorbance at 450 nm was measured by using a microplate reader, and the cell survival rate was calculated.

[5] = tested on: Panc-1 cells; assay: Apoptosis, Annexin V-FITC/PI double staining with flow cytometry; type: cell-based; settings: 72 h
Description: Pancreatic cancer Panc-1 cells were seeded into 24-well plates at a density of 3×10^4 cells/well. After the cells adhered, different concentrations of compound 2-34 (25 µM, 50 µM, 100 µM) were added and co-incubated for 72 h. All cells were collected, washed 2 times with PBS, and resuspended in binding buffer (Beyotime, Shanghai, China). Then, 5 µL of Annexin V-FITC (fluorescein isothiocyanate) and 10 µL of PI (propidium iodide) dye were added in sequence, and the cells were stained in the dark for 20 min. The apoptosis rate was detected by using a flow cytometer (Beckman CytoFLEX), and the specific apoptosis ratio was analyzed by using CytoFLEX software.

[6] = tested on: Panc-1 cells; assay: Cell cycle, PI staining with flow cytometry; type: cell-based; settings: 72 h
Description: Pancreatic cancer Panc-1 cells were seeded into 24-well plates at a density of 6×10^4 cells/well. After the cells adhered, different concentrations of compound 2-34 (25 µM, 50 µM, 100 µM) were added and co-incubated for 72 h. All cells were collected, washed 2 times with PBS, and fixated in 70% (volume fraction) ethanol overnight. The fixated cells were collected, washed 2 times with PBS, and stained with PI staining solution containing RNase (ribonuclease) in the dark for 30 min. The nucleic acid content in the cells was detected by using a flow cytometer, and the percentage of cells in each cycle phase was analyzed by using ModFit software.

| Compound | inhibition at 50 µM ([1]; Homo sapiens, ASPC1, Aspc-1, 50 µM, read-out: inhibition rates) [%] | inhibition at 50 µM ([2]; Homo sapiens, Panc-1, 50 µM, read-out: inhibition rates) [%] | inhibition rates ([1]; Aspc-1, 50 µM) [%] | proliferation inhibition, concentration dependence ([1]; Aspc-1, 3.125-100 µM) | inhibition rates ([3]; Bxpc-3, 50 µM) [%] | proliferation inhibition, concentration dependence ([3]; Bxpc-3, 3.125-100 µM) | inhibition rates ([2]; Panc-1, 50 µM) [%] | proliferation inhibition, concentration dependence ([2]; Panc-1, 3.125-100 µM) | cytotoxicity towards the growth of LO2 hepatocytes [4] | apoptosis rate ([5]; Panc-1, 25 µM) [%] | apoptosis rate ([5]; Panc-1, 50 µM) [%] | apoptosis rate ([5]; Panc-1, 100 µM) [%] | number of cells in the G2 phase ([6]; Panc-1, 25 µM, 50 µM, 100 µM) | proportion of cells in the G1 phase ([6]; Panc-1, 25 µM) [%] | proportion of cells in the S phase ([6]; Panc-1, 25 µM) [%] | proportion of cells in the G1 phase ([6]; Panc-1, 50 µM) [%] | proportion of cells in the S phase ([6]; Panc-1, 50 µM) [%] | proportion of cells in the G1 phase ([6]; Panc-1, 100 µM) [%] | proportion of cells in the S phase ([6]; Panc-1, 100 µM) [%] |
| --- | --- | --- | --- | --- | --- | --- | --- | --- | --- | --- | --- | --- | --- | --- | --- | --- | --- | --- | --- |
| Nc1ccn([C@@H]2O[C@H](CO)[C@@H](O)C2(F)F)c(=O)n1 [gemcitabine, reference compound] | 61.4 | 23.2 |  |  |  |  |  |  |  |  |  |  |  |  |  |  |  |  |  |
| Octylβ-D-galactopyranosyl-(1→6)-β-D-galactopyranosyl-(1→6)-β-D-galactopyranosyl-( 1→6)-{α-L-arabinofuranosyl-(1→5)-α-L-arabinofuranosyl-(1→5)-α-L-arabinofuransyl-(1→5)-[ β-D-galactopyranosyl-(1→3)]-α-L-arabinofuranosyl-(1→3)-β-D-galactopyranosyl-(1→3)}-β-D-galactopyranoside [compound 2-34] |  |  | 74.9 | significant concentration dependence | 29.5 | significant concentration dependence | 72.1 | significant concentration dependence | no cytotoxicity | 31.99 | 31.92 | 67.59 | remains relatively stable with minor changes | 51.33 | 22.19 | 46.99 | 27.66 | 42.43 | 36.29 |
